In patent US20150320706A1, “FORMULATIONS AND METHODS OF TREATING ALZHEIMER'S DISEASE AND OTHER PROTEINOPATHIES BY COMBINATION THERAPY” (CHIESI FARMACEUTICI S.P.A., priority 2014, published 2015):
“Also recorded” adds a separate entry of the source.

How the values were obtained:
Notch = settings: cited from earlier work
[1] = test system: MCI (mild cognitively impaired) patients; assay: Cognitive tests in open label extension study of CHF 5074 in MCI patients; assay type: in vivo, human
Procedure: (§1) In Example 1, the safety and tolerability and cognitive effects of CHF 5074 was analyzed after prolonged treatment in MCI (mild cognitively impaired) patients.
(§2) Methods: At the end of a 14-week double-blind, placebo-controlled study in 96 MCI patients evaluating three titrated dose regimens of CHF 5074 (200, 400 and 600 mg/day), patients were given the option to enter a 76-week open label extension study. Patients received CHF 5074 at the dose equal to that of their originally assigned double-blind study cohort. Patients were monitored for vital signs, cardiac activity, neuropsychological performance and safety laboratory parameters.

[2] = test system: human APP transgenic mice models of AD; settings: transgenic mouse models of AD; cited from earlier work
[3] = test system: MCI (mild cognitively impaired) patients; assay: Safety and tolerability after prolonged treatment in MCI patients; assay type: in vivo, human
Procedure: as §1, §2

microglia = settings: response to an Aβ42 stimulus; cited from earlier work
sCD40L and TNF-α = assay: Neuroinflammation biomarkers in cerebrospinal fluid of MCI patients; assay type: in vivo, human; settings: MCI patients, 200, 400 and 600 mg/day
Procedure: as §2

[4] = test system: TNF-α and soluble CD 40 ligand (sCD40L); settings: healthy subjects and individuals with MCI; cited from earlier work
[5] = in vivo, cited from earlier work
Aβ42 = settings: in vitro; cited from earlier work
[6] = test system: cognitively normal elderly subjects; settings: cited from earlier work
[7] = test system: patients with mild cognitive impairment (MCI); settings: cited from earlier work
β-amyloid = settings: cited from earlier work
Sequence of β-amyloid (P05067 672-711 limits assumed): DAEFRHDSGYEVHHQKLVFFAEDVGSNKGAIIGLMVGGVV

[8] = APOE4 non-carriers, Study Week 64

## O=C(O)C1(c2ccc(-c3ccc(Cl)c(Cl)c3)c(F)c2)CC1 [CHF 5074, 1-(3′,4′-dichloro-2-fluorobiphenyl-4-yl)cyclopropanecarboxylic acid]
Notch
  effects on Notch processing: lack of effects on Notch processing
[1]; 200 mg/day and 400 mg/day compared to 600 mg/day (FIG. 1)
  verbal memory, week 88 change from baseline, comparison of doses: surprisingly superior
[1]; 200 mg/day and 400 mg/day doses (FIG. 8)
  verbal memory at week 88 (number of words): dose-dependent improvement
[1]; APOE4 carriers, Immediate Word Recall and Trail Making Test-A, Study Week 64
  improvements as share of Baseline scores: 25-38%
[1]; APOE4 carriers, Study Week 64, p=0.012 vs non-carriers
  Immediate Word Recall, improvement compared to Baseline: +5.4±1.2 words
[1]; APOE4 carriers, Study Week 64, p=0.034 vs non-carriers
  Trail Making Test-A, improvement compared to Baseline: -12.4 ± 2.8 s
[1]; [8]
  Immediate Word Recall, improvement compared to Baseline: +1.4±0.9 words
  Trail Making Test-A, improvement compared to Baseline: -5.6 ± 3.3 s
[1]; interim analysis, 32 patients reaching Study Week 64, p<0.001
  Digit Symbol Substitution Test, improvement compared to Baseline: +4.8±1.1 matches
[1]; interim analysis, 32 patients reaching Study Week 64, p=0.001
  Immediate Word Recall, improvement compared to Baseline: +2.9±0.8 words
[1]; interim analysis, 32 patients reaching Study Week 64, p=0.002
  Trail Making Test-A, improvement compared to Baseline: -8.1 ± 2.4 s
[1]; interim analysis, 32 patients reaching Study Week 64, p=0.003
  Delayed Word Recall, improvement compared to Baseline: +1.3±0.4 words
[1]; interim analysis, 32 patients reaching Study Week 64, p=0.004
  Trail Making Test-B, improvement compared to Baseline: -14.5 ± 4.6 s
[2]
  brain plaque deposition: prevent brain plaque deposition; also recorded: inhibit brain plaque deposition
  memory deficits: attenuate memory deficits; also recorded: attenuate or reverse associated memory deficits
[3]; 200 mg/day
  diarrhea, patients reporting: 1.4%
[3]; 400 mg/day
  diarrhea, patients reporting: 6.3%
[3]; 400 mg/day group, at Study Week 40 (pneumonia)
  drop-outs for adverse events: one
[3]; 600 mg/day
  diarrhea, patients reporting: 16.0%
[3]; 600 mg/day group, at Study Week 40 (serum creatinine elevation and worsening of cognitive function)
  drop-outs for adverse events: two
[3]; MCI patients
  safety profile: acceptable safety profile
[3]; prolonged treatment at doses up to and including 400 mg/day
  tolerability: well tolerated
microglia
  M1 inflammatory activity of microglia: blunting or inhibiting M1 inflammatory activity
  M2 phagocytic responses of microglia: stimulating M2 phagocytic responses
sCD40L and TNF-α
  neuroinflammation biomarkers (CSF sCD40L and TNF-α): dose-dependently lowered
[4]
  CSF biomarkers of neuroinflammation, TNF-α and sCD40L: lowers, in a dose-dependent fashion
[5]; po
  oral absorption: good oral absorption
[5]
  brain penetration: satisfactory brain penetration
  half-life: long half-life
Aβ42
  Aβ42 inhibitory activity: selective Aβ42 inhibitory activity

## COc1ccc2cc([C@H](C)C(=O)O)ccc2c1 [naproxen]
[6]; 4-year follow-up assessment
  protection from the onset of AD compared to placebo: 67%
[6]; after two years of treatment
  incidence of dementia: neither drug reduced the incidence of dementia

## CS(=O)(=O)c1ccc(C2=C(c3ccccc3)C(=O)OC2)cc1 [rofecoxib]
[7]
  outcome of secondary prevention study: negative

## MABT5102A: humanized monoclonal antibody against human Aβ1-40 and Aβ1-42 with an IgG4 backbone which reduces effector function
β-amyloid
  binding to β-amyloid species: binds to soluble, oligomeric and fibrillar β-amyloid deposits
